Source: patent publication US9656988B2 (Pharmacyclics LLC, priority 2013, dated 2017)
Read-outs that look alike come from different tables or passages of the source.

Target: BTK (Homo sapiens (Human), UniProt Q06187)
Test: Btk in vitro inhibitory activity (one of Method A TR-FRET, Method B electrophoretic mobility shift, Method C radiometric filter binding)
Format: biochemical
[1] = determined using one of the methods of Example 355a, 355b and 355c, read-out: BTK IC50

Sequence of BTK (Q06187 whole entry): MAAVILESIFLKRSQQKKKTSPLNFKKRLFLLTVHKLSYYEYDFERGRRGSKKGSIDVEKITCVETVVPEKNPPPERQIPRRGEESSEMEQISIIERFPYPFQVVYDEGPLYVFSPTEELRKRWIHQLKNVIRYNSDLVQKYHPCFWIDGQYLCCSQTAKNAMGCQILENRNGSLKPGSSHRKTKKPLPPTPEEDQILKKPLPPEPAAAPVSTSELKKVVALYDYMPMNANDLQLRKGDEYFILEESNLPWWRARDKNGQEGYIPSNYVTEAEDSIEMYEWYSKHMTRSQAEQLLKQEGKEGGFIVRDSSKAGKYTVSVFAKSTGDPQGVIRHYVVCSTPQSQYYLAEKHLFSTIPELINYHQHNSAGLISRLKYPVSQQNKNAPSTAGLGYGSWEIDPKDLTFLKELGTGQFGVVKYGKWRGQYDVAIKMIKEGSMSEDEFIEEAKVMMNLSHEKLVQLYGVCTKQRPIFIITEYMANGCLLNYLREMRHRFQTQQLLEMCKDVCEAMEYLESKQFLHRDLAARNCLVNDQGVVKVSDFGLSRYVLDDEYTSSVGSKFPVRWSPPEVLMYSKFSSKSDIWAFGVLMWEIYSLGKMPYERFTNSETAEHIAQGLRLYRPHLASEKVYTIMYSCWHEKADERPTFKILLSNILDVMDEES

SMILES	IC50 [1]	IC50 (read-out: Btk (IC50))	IC50 (Btk (IC50))	IC50
CN(C)C(=O)N[C@@H]1CCCN(c2cnc(C(N)=O)c(Nc3ccc(C4(CN)CCCC4)cc3)n2)C1 [Example 204, (R)-3-(4-(1-(aminomethyl)cyclopentyl)phenylamino)-5-(3-(3,3-dimethylureido)piperidin-1-yl)pyrazine-2-carboxamide]	10 to 100 nM	10 to 100 nM		
CCN1CCC(c2ccc(Nc3nc(N4CCC[C@@H](NC(=O)N(C)C)C4)cnc3C(N)=O)cc2)CC1 [Example 207, (R)-5-(3-(3,3-dimethylureido)piperidin-1-yl)-3-(4-(1-ethylpiperidin-4-yl)phenylamino)pyrazine-2-carboxamide]	10 to 100 nM		10 to 100 nM	
CC(C)[N+]1([O-])CCC(c2ccc(Nc3nc(N4CCC[C@@H](NC(=O)N(C)C)C4)cnc3C(N)=O)cc2)CC1 (stereo partly drawn) [Example 209, (R)-4-(4-(3-carbamoyl-6-(3-(3,3-dimethylureido)piperidin-1-yl)pyrazin-2-ylamino)phenyl)-1-isopropylpiperidine 1-oxide]	10 to 100 nM			
CN(C)C(=O)N[C@@H]1CCCN(c2cnc(C(N)=O)c(Nc3ccc(C4CCN(C5CCCCC5)CC4)cc3)n2)C1 [Example 210, (R)-3-(4-(1-cyclohexylpiperidin-4-yl)phenylamino)-5-(3-(3,3-dimethylureido)piperidin-1-yl)pyrazine-2-carboxamide]	< 10 nM	< 10 nM		
CN(C)C(=O)N[C@@H]1CCCN(c2cnc(C(N)=O)c(Nc3cnn(C4CCCC4)c3)n2)C1 [Example 217, (R)-3-(1-cyclopentyl-1H-pyrazol-4-ylamino)-5-(3-(3,3-dimethylureido)piperidin-1-yl)pyrazine-2-carboxamide]	10 to 100 nM			
CN(C)C(=O)N[C@@H]1CCCN(c2cnc(C(N)=O)c(Nc3cnn(C4CCN(C5CCCC5)CC4)c3)n2)C1 [Example 218, (R)-3-(1-(1-cyclopentylpiperidin-4-yl)-1H-pyrazol-4-ylamino)-5-(3-(3,3-dimethylureido)piperidin-1-yl)pyrazine-2-carboxamide]	< 10 nM			
CN(C)C(=O)N[C@@H]1CCCN(c2cnc(C(N)=O)c(Nc3ccc(C4(C)CCN(C5CCCC5)CC4)cc3)n2)C1 [Example 222, (R)-3-(4-(1-cyclopentyl-4-methylpiperidin-4-yl)phenylamino)-5-(3-(3,3-dimethylureido)piperidin-1-yl)pyrazine-2-carboxamide]	< 10 nM	< 10 nM		
CN(C)C(=O)N(C)[C@@H]1CCCN(c2cnc(C(N)=O)c(Nc3ccc(C4CCN(C5CCCC5)CC4)cc3)n2)C1 [Example 225, (R)-3-(4-(1-cyclopentylpiperidin-4-yl)phenylamino)-5-(3-(1,3,3-trimethylureido)piperidin-1-yl)pyrazine-2-carboxamide]	< 10 nM		10 to 100 nM	
CN(C)C(=O)N1CCC(c2ccc(Nc3nc(N4CCC[C@@H](N(C)C(=O)N(C)C)C4)cnc3C(N)=O)cc2)CC1 [Example 226, (R)-3-(4-(1-(dimethylcarbamoyl)piperidin-4-yl)phenylamino)-5-(3-(1,3,3-trimethylureido)piperidin-1-yl)pyrazine-2-carboxamide]	10 to 100 nM		10 to 100 nM	
CCC(=O)N1CCC(c2ccc(Nc3nc(N4CCC[C@@H](N(C)C(=O)N(C)C)C4)cnc3C(N)=O)cc2)CC1 [Example 227, (R)-3-(4-(1-propionylpiperidin-4-yl)phenylamino)-5-(3-(1,3,3-trimethylureido)piperidin-1-yl)pyrazine-2-carboxamide]	10 to 100 nM		10 to 100 nM	
CN(C)C(=O)N(C)[C@@H]1CCCN(c2cnc(C(N)=O)c(Nc3ccc(C4CCN(S(C)(=O)=O)CC4)cc3)n2)C1 [Example 228, (R)-3-(4-(1-(methylsulfonyl)piperidin-4-yl)phenylamino)-5-(3-(1,3,3-trimethylureido)piperidin-1-yl)pyrazine-2-carboxamide]	10 to 100 nM			10 to 100 nM
CN(C)C(=O)N(C)[C@@H]1CCCN(c2cnc(C(N)=O)c(Nc3ccc(N4CCS(=O)(=O)CC4)cc3)n2)C1 [Example 229, (R)-3-(4-(1,1-dioxothiomorpholino)phenylamino)-5-(3-(1,3,3-trimethylureido)piperidin-1-yl)pyrazine-2-carboxamide]	10 to 100 nM			10 to 100 nM
C[C@@H]1[C@H](N)CCCN1c1cnc(C(N)=O)c(Nc2ccc(C3CCN(C4CCCC4)CC3)cc2)n1 [Example 230, 5-((2R,3R)-3-amino-2-methylpiperidin-1-yl)-3-(4-(1-cyclopentylpiperidin-4-yl)phenylamino)pyrazine-2-carboxamide]	10 to 100 nM		10 to 100 nM	
CC[C@@H]1[C@H](NC(=O)N(C)C)CCCN1c1cnc(C(N)=O)c(Nc2ccc(C3CCN(C4CCC4)CC3)cc2)n1 [Example 236, 3-(4-(1-cyclobutylpiperidin-4-yl)phenylamino)-5-((2R,3R)-3-(3,3-dimethylureido)-2-ethylpiperidin-1-yl)pyrazine-2-carboxamide]	< 10 nM	< 10 nM		
C[C@@H]1[C@H](NC(=O)N(C)C)CCCN1c1cnc(C(N)=O)c(Nc2ccc(C3CCN(C4CC4)CC3)cc2)n1 [Example 237, 3-(4-(1-cyclopropylpiperidin-4-yl)phenylamino)-5-((2R,3R)-3-(3,3-dimethylureido)-2-methylpiperidin-1-yl)pyrazine-2-carboxamide]	< 10 nM		< 10 nM	

Second part, led by results:

IC50 [1]	IC50 (read-out: Btk (IC50))	IC50 (Btk (IC50))	SMILES	IC50
< 10 nM	< 10 nM		CN(C)C(=O)N[C@@H]1CCCN(c2cnc(C(N)=O)c(Nc3ccc(C4(C(=O)N(C)C)CC4)cc3)n2)C1 [Example 202, (R)-3-(4-(1-(dimethylcarbamoyl)cyclopropyl)phenylamino)-5-(3-(3,3-dimethylureido)piperidin-1-yl)pyrazine-2-carboxamide]	
< 10 nM		< 10 nM	CN(C)C(=O)N[C@@H]1CCCN(c2cnc(C(N)=O)c(Nc3ccc(C4(C#N)CCCC4)cc3)n2)C1 [Example 203, (R)-3-(4-(1-cyanocyclopentyl)phenylamino)-5-(3-(3,3-dimethylureido)piperidin-1-yl)pyrazine-2-carboxamide]	
< 10 nM	< 10 nM		CC(C)N1CCC(c2ccc(Nc3nc(N4CCC[C@@H](NC(=O)N(C)C)C4)cnc3C(N)=O)cc2)CC1 [Example 208, (R)-5-(3-(3,3-dimethylureido)piperidin-1-yl)-3-(4-(1-isopropylpiperidin-4-yl)phenylamino)pyrazine-2-carboxamide]	
10 to 100 nM		10 to 100 nM	CN(C)C(=O)N[C@@H]1CCCN(c2cnc(C(N)=O)c(Nc3ccc(C4CCNCC4)cc3Cl)n2)C1 [Example 213, (R)-3-(2-chloro-4-(piperidin-4-yl)phenylamino)-5-(3-(3,3-dimethylureido)piperidin-1-yl)pyrazine-2-carboxamide]	
< 10 nM	< 10 nM		CN(C)C(=O)N[C@@H]1CCCN(c2cnc(C(N)=O)c(Nc3ccc(N4CCN(C5CC5)CC4)cc3)n2)C1 [Example 214, (R)-3-(4-(4-cyclopropylpiperazin-1-yl)phenylamino)-5-(3-(3,3-dimethylureido)piperidin-1-yl)pyrazine-2-carboxamide]	
< 10 nM	< 10 nM		CN(C)C(=O)N[C@@H]1CCCN(c2cnc(C(N)=O)c(Nc3ccc(N4CCN(C5CCCC5)CC4)cc3)n2)C1 [Example 215, (R)-3-(4-(4-cyclopentylpiperazin-1-yl)phenylamino)-5-(3-(3,3-dimethylureido)piperidin-1-yl)pyrazine-2-carboxamide]	
10 to 100 nM			CN(C)C(=O)N[C@@H]1CCCN(c2cnc(C(N)=O)c(Nc3cnn(C4CC4)c3)n2)C1 [Example 216, (R)-3-(1-cyclopropyl-1H-pyrazol-4-ylamino)-5-(3-(3,3-dimethylureido)piperidin-1-yl)pyrazine-2-carboxamide]	
10 to 100 nM		10 to 100 nM	CN(C)C(=O)N[C@@H]1CCCN(c2cnc(C(N)=O)c(Nc3cnn(C4CCN(C(=O)C5CC5)CC4)c3)n2)C1 [Example 219, (R)-3-(1-(1-(cyclopropanecarbonyl)piperidin-4-yl)-1H-pyrazol-4-ylamino)-5-(3-(3,3-dimethylureido)piperidin-1-yl)pyrazine-2-carboxamide]	
< 10 nM	< 10 nM		CN(C)C(=O)N[C@@H]1CCCN(c2cnc(C(N)=O)c(Nc3ccc(C4(C)CCNCC4)cc3)n2)C1 [Example 221, (R)-5-(3-(3,3-dimethylureido)piperidin-1-yl)-3-(4-(4-methylpiperidin-4-yl)phenylamino)pyrazine-2-carboxamide]	
< 10 nM	< 10 nM		CN(C)C(=O)N[C@@H]1CCCN(c2cnc(C(N)=O)c(Nc3ccc(C4(C)CCN(C(=O)N(C)C)CC4)cc3)n2)C1 [Example 223, (R)-3-(4-(1-(dimethylcarbamoyl)-4-methylpiperidin-4-yl)phenylamino)-5-(3-(3,3-dimethylureido)piperidin-1-yl)pyrazine-2-carboxamide]	
< 10 nM			CCC(=O)N1CCC(C)(c2ccc(Nc3nc(N4CCC[C@@H](NC(=O)N(C)C)C4)cnc3C(N)=O)cc2)CC1 [Example 224]	
100 to 1000 nM		100 to 1000 nM	C[C@H]1[C@H](N)CCCN1c1cnc(C(N)=O)c(Nc2ccc(C3CCN(C4CCCC4)CC3)cc2)n1 [Example 231, 5-((2S,3R)-3-amino-2-methylpiperidin-1-yl)-3-(4-(1-cyclopentylpiperidin-4-yl)phenylamino)pyrazine-2-carboxamide]	
< 10 nM	< 10 nM		C[C@@H]1[C@H](NC(=O)N(C)C)CCCN1c1cnc(C(N)=O)c(Nc2ccc(C3CCN(C4CCCC4)CC3)cc2)n1 [Example 232, 3-(4-(1-cyclopentylpiperidin-4-yl)phenylamino)-5-((2R,3R)-3-(3,3-dimethylureido)-2-methylpiperidin-1-yl)pyrazine-2-carboxamide]	
100 to 1000 nM		100 to 1000 nM	C[C@H]1[C@H](NC(=O)N(C)C)CCCN1c1cnc(C(N)=O)c(Nc2ccc(C3CCN(C4CCCC4)CC3)cc2)n1 [Example 233, 3-(4-(1-cyclopentylpiperidin-4-yl)phenylamino)-5-((2S,3R)-3-(3,3-dimethylureido)-2-methylpiperidin-1-yl)pyrazine-2-carboxamide]	
